In patent publication US11918693B2, “Ibuprofen and acetaminophen tablet” (GlaxoSmithKline Consumer Healthcare Holdings (US) LLC, priority 2019, dated 2024):

Test system: pyrexia induced by intravenous reference standard endotoxin (RSE) in healthy males
Format: in vivo, human
Conditions: for WSTD0-2 h, Treatment difference vs. Placebo / WSTD0-4 h, Treatment difference vs. Placebo / WSTD0-6 h, Treatment difference vs. Placebo / WSTD0-8 h, Treatment difference vs. Placebo / WSTD6-8 h, Treatment difference vs. Placebo / WSTD50-110 min, Treatment difference vs. Placebo / WSTD80-110 min, Treatment difference vs. Placebo / Period post dose in which subjects' temperatures were significantly reduced relative to placebo / Headache due to RSE, subjects / Nausea due to RSE, subjects / Pyrexia, AE considered related to RSE, subjects: APAP 500 mg; for WSTD50-110 min, LSM / WSTD50-110 min, Mean / WSTD80-110 min, LSM / WSTD80-110 min, Mean: post hoc analysis; for WSTD50-110 min, LSM / WSTD50-110 min, Mean / WSTD80-110 min, LSM / WSTD80-110 min, Mean / WSTD0-2 h, Mean (SD) / WSTD0-4 h, Mean (SD) / WSTD0-6 h, Mean (SD) / WSTD6-8 h, Mean (SD) / WSTD0-8 h, Mean (SD): IBU dose 250 mg, APAP dose 500 mg; for Period post dose in which subjects' temperatures were significantly reduced relative to placebo / WSTD0-2 h, Mean (SD) / WSTD0-4 h, Mean (SD) / WSTD0-6 h, Mean (SD) / WSTD6-8 h, Mean (SD) / WSTD0-8 h, Mean (SD): single oral dose; for WSTD0-8 h, Mean (SD): primary efficacy endpoint; for Headache due to RSE, subjects / Nausea due to RSE, subjects / Pyrexia, AE considered related to RSE, subjects: study drug treatment period
Description: This study evaluated the antipyretic efficacy, onset of effect and tolerability of a single dose of FDC IBU/APAP 250 mg/500 mg compared with placebo and each monocomponent at the same dose.
This was a single-center, randomized, double-blind, placebo-controlled, full-factorial study in healthy males aged 18-55 years in whom pyrexia was induced by intravenous administration of a reference standard endotoxin (RSE). After RSE administration and attainment of an oral temperature ≥100.5° F. (38.1° C.), subjects were randomized 3:3:3:1 to receive a single oral dose of FDC IBU/APAP 250 mg/500 mg, APAP 500 mg, IBU 250 mg, or placebo in double-blind fashion. Oral temperature was subsequently measured every 10 minutes for the first 2 hours and then every 30 minutes until 8 hours post dose. Time-weighted sum of temperature differences from baseline to 8 hours (WSTD0-8) after study medication administration was the primary efficacy endpoint. Secondary endpoints included WSTD scores from 0-2, 0-4, 0-6, and 6-8 hours; time to return to “normal” temperature; time to rescue medication use; global drug evaluation. Safety was monitored and assessed via adverse events (AEs).
This was a single-center, randomized, double-blind, placebo-controlled, full-factorial single-dose study in subjects in whom pyrexia was induced by intravenous (IV) administration of a reference standard endotoxin (RSE). In this standardized model, fever was induced by endotoxin (gram-negative bacterial lipopolysaccharide) derived from Escherichia coli O113, which was developed as a national biological reference standard in 1976 by the National Institute of Allergy and Infectious Diseases and the US Food and Drug Administration. The RSE used in this study was supplied by List Biological Laboratories, Inc. (Campbell, CA, USA).
Subject eligibility was determined at a screening visit within 28 days prior to study drug treatment; eligible subjects were assigned sequential subject numbers by the investigator. Subjects were healthy males aged 18-55 years, inclusive, with a normal, stable body temperature at screening and day 0, body mass index of 17.5-37.0 kg/m^2, and total body weight ≥50 kg at screening, demonstrably adequate veins for IV catheter insertion, and who were willing and able to comply with all study procedures. […] Female subjects were not enrolled due to potential teratogenicity concerns associated with the use of the RSE.
Subjects entered the study center on day 0 to confirm eligibility, i.e., afebrile state, defined as a mean oral temperature 97.4° F. to 98.8° F. not varying by more than 0.4° F. on 3 repeated measures over 30 minutes and still meeting inclusion/exclusion criteria. Subjects who remained eligible for the study remained in-house until after completion of all study procedures.
Subjects received prophylactic ondansetron, 8 mg intravenously, approximately 30 minutes prior to administration of the RSE to reduce the likelihood of nausea and vomiting. Prior to RSE administration, changes to prior treatments were recorded; blood pressure and HR were measured; and a 12-lead ECG was obtained. Oral temperatures were recorded, with “normal” for each subject being the temperature recorded immediately prior to RSE administration.
Subject eligibility Subject assessments included physical examination, vital sign measurement, ECG evaluation, and laboratory studies (hematology, serum chemistry, urinalysis). The baseline oral temperature was defined as the temperature reading obtained immediately prior to administration of study medication, after the subject had reached an RSE-induced oral temperature ≥100.5° F. (38.1° C.) that was required for randomization. After randomization and study medication administration, oral temperature was measured using a standardized electronic digital thermometer every 10 minutes for the first 2 hours, and then every 30 minutes until 8 hours post dose. Subjects were assessed for emergence of AEs at each temperature evaluation time point. […]

[1] = first minus second treatment, IBU 250 mg

SMILES	WSTD0-2 h, Treatment difference vs. Placebo [1]	WSTD0-4 h, Treatment difference vs. Placebo [1]	WSTD0-6 h, Treatment difference vs. Placebo [1]	WSTD0-8 h, Treatment difference vs. Placebo [1]	WSTD6-8 h, Treatment difference vs. Placebo [1]	WSTD50-110 min, LSM	WSTD50-110 min, Mean	WSTD80-110 min, LSM	WSTD80-110 min, Mean	WSTD50-110 min, Treatment difference vs. Placebo (post hoc, IBU 250 mg)	WSTD80-110 min, Treatment difference vs. Placebo (post hoc, IBU 250 mg)	Period post dose in which subjects' temperatures were significantly reduced relative to placebo (IBU 250 mg)	WSTD0-2 h, Mean (SD)	WSTD0-4 h, Mean (SD)	WSTD0-6 h, Mean (SD)	WSTD6-8 h, Mean (SD)	WSTD0-8 h, Mean (SD)	Headache due to RSE, subjects (IBU 250 mg)	Nausea due to RSE, subjects (IBU 250 mg)	Pyrexia, AE considered related to RSE, subjects (IBU 250 mg)	also measured
CC(C)Cc1ccc(C(C)C(=O)O)cc1 (stereo not shown) [IBU, 2-(4-isobutylphenyl) propionic acid]	0.51	1.26	1.83	2.23	0.51	0.103	−0.02	0.190	0.13	0.374	0.251	100 to 180 min	−0.19 (1.86)	2.61 (3.34)	6.65 (4.79)	5.49 (2.26)	11.09 (6.35)	14.9%	12.6%	41.4%	Subjects who took rescue medication (8-hour treatment period, IBU 250 mg): 1 subject; Global Evaluation of study medication as a fever reducer, in words (ANCOVA analysis, 6-point scale, P<0.05): rated their treatment significantly higher than those in the placebo group; WSTD0-2 h, Treatment difference vs. APAP 500 mg [1]: −0.09; WSTD0-4 h, Treatment difference vs. APAP 500 mg [1]: −0.16; WSTD0-6 h, Treatment difference vs. APAP 500 mg [1]: −0.09; WSTD0-8 h, Treatment difference vs. APAP 500 mg [1]: −0.12; WSTD6-8 h, Treatment difference vs. APAP 500 mg [1]: −0.01; WSTD50-110 min, Treatment difference vs. APAP 500 mg (post hoc, IBU 250 mg): −0.032; WSTD80-110 min, Treatment difference vs. APAP 500 mg (post hoc, IBU 250 mg): −0.002
CC(=O)Nc1ccc(O)cc1 [APAP, N-(4-hydroxyphenyl)acetamide]	0.60	1.42	1.92	2.35	0.53	0.135	0.19	0.192	0.23	0.406	0.253	100 to 270 min	0.21 (1.73)	3.41 (3.17)	7.65 (4.60)	5.84 (2.33)	12.39 (6.28)	5.7%	9.2%	29.9%	
